Results on four compounds are retold here after the NIST ThermoML archive (doi:10.1016/j.fluid.2012.10.015).

For series [1] the following is noted: Liquid; for mass density: 101.33 kPa, Vibrating tube method; for vapor or sublimation pressure: Closed cell (Static) method.
Series [2] is described as follows: refractive index (Na D-line) (dimensionless). The settings on record: 298.15 K; 101.33 kPa; Liquid; Standard Abbe refractometry.

Structures are written as SMILES. ± gives the expanded uncertainty stated by the source.

With `CC[N+](=O)[O-]` [nitroethane], the mass density in series [1] (298.15 K) worked out at 1044.21 ± 2.3 kg/m3. Further, the results for the “vapor or sublimation pressure” value in series [1] (298.15 K), in series [1] (308.15 K) and in series [1] (318.15 K) were 2.95 ± 0.05 kPa, 4.69 ± 0.06 kPa and 7.24 ± 0.07 kPa, respectively. The refractive index in series [2] is recorded as 1.38951 ± 0.00071.
On to `CCCCCCl` [1-chloropentane], for which the mass density in series [1] (298.15 K) is listed as 877.089 ± 2.2 kg/m3. Besides, the “vapor or sublimation pressure” value in series [1] (298.15 K) came out at 4.24 ± 0.07 kPa; in series [1] (308.15 K) it was 7.09 ± 0.08 kPa; in series [1] (318.15 K) it was 10.91 ± 0.09 kPa. For the same compound, the refractive index in series [2] was 1.41015 ± 0.00068.
For `CCCCCl` [1-chlorobutane] the same measures were 881.172 ± 2.2 kg/m3, 13.72 ± 0.15 kPa, 20.66 ± 0.19 kPa, 31.46 ± 0.23 kPa and 1.39953 ± 0.00068.
Taken in the same sequence, the figures for `C[N+](=O)[O-]` [nitromethane] were 1130.87 ± 2.3 kg/m3, 4.83 ± 0.07 kPa, 7.5 ± 0.09 kPa, 12.57 ± 0.11 kPa and 1.37956 ± 0.00072.
